Laboratory results reported in patent US8865138B2, “Melanin modification compositions and methods of use” (Allergan, Inc., priority 2011, dated 2014).

System: PGF2 alpha
Assay: Inhibition of prostaglandin F2 alpha levels in UVB-exposed keratinocytes (ELISA)
Assay type: cell-based
Details: UVB-induced human keratinocytes; PGF2 alpha measured by ELISA 24 hours post-treatment; FIG. 1
Experimental: Human keratinocytes were harvested and exposed to with UVB light to induce PGF2 alpha release. Following exposure to UVB irradiation, the cells were treated with a composition comprising 1% 4-ethoxybenzaldehyde, Indomethacin (positive control) or left untreated (negative control). After 24 hours post-treatment, PGF2 alpha levels were measured by ELISA analysis.

Compound: CCOc1ccc(C=O)cc1 [4-ethoxybenzaldehyde]
- inhibition of PGF2 alpha: dose-dependent inhibition
